Earlier results as cited in patent US8338613B2, “Process for the preparation of bidentate schiff base ruthenium catalysts containing a salicylaldimine-type ligand” (RIMTEC Corporation, priority 2009, dated 2012).

Conditions: in water (for Ag2CO3)

Row | pKb | SMILES
1 | about 3.69 | O=C([O-])[O-].[K+].[K+] [K2CO3]
2 | about 3.69 | O=C([O-])[O-].[Li+].[Li+] [Li2CO3]
3 | about 3.69 | O=C([O-])[O-].[Cu+2] [CuCO3]
4 | about 3.69 | O=C([O-])[O-].[Na+].[Na+] [Na2CO3]
